Assay results as given in patent publication US20210275447A1, “SUSTAINED-RELEASE OPHTHALMIC PHARMACEUTICAL COMPOSITIONS AND USES THEREOF” (TAIWAN LIPOSOME CO., LTD., priority 2018, published 2021).
Counter-ions that a name gives are not always drawn.

What was measured:
[1] = Drug loading of liposomes by remote loading: drug to lipid molar ratio and encapsulation efficiency; assay type: physicochemical; details: 300 mM AS, 2 mg/mL drug
Experimental: The dry lipid was hydrated in a trapping agent, 300 mM ammonium sulfate (AS), for 30 min at the temperature above the transition temperature to form the MLVs. […] After extrusion, unencapsulated trapping agent was removed by dialysis method or diafiltration method against 9.4% sucrose solution or 0.9% NaCl to create a polyatomic ion gradient between the inner aqueous phase and the outer aqueous phase of the empty liposomes.
A reaction mixture containing 10.0 mg/mL of sunitinib (LC Laboratories, USA), empty liposomes (with 20.0 mM of lipids prepared according to Example 1), and 40 mM histidine buffer (pH 7) was incubated at 40° C. for 15 min The unencapsulated sunitinib of the reaction mixture was removed by a Sephadex™ G-50 Fine gel (GE Healthcare, USA) or dialysis bag (Spectrum Labs, USA) against a 9.4% sucrose solution to obtain a liposomal sunitinib formulation. The encapsulated sunitinib concentration and the lipid concentration of the liposomal sunitinib formulation were measured using an ultraviolet/visible (UV/Vis) spectrophotometer to calculate the drug to lipid molar ratio (D/L) of the liposomal sunitinib formulation.
The encapsulation efficiency was calculated by comparing the drug to lipid molar ratio (D/L) of the liposomal sunitinib formulation to the nominal D/L of the reaction mixture, which is dividing the initial added concentration of sunitinib by the initial added concentration of lipid of empty liposome.
An initial loading concentration of 4.0 mg/mL of sunitinib or sunitinib malate was mixed with the empty liposomes according to the procedures of Example 2.

[2] = In vitro release through dialysis bag in rabbit vitreous humor; assay type: in vitro ADME; details: PBS pH 7.4, 37° C., released immediately, FIG. 1
Experimental: Each dialysis bag contained 950 μL of rabbit vitreous humor (Pel-Freez Biologicals, USA) and both ends of the dialysis bags were then sealed. Each dialysis bag was immersed in 25 mL of PBS at pH 7.4 in a 50-mL centrifuge tube and incubated in a water bath at 37±1° C. for 24 hours. At designated time points after incubation (1, 2, 4, 6, 24, 48, 122, 146 and 168 hours), 0.5 mL aliquot from the 25 mL PBS inside each centrifuge tube was sampled and 0.5 mL of fresh PBS was added to replenish the sampled aliquot. Drug concentrations of the sampled aliquots at each time point were analyzed using high performance liquid chromatography (HPLC) to create the in vitro release profile of the liposomal composition.

[3] = liposomes DOPC/cholesterol (66.7/33.3)
[4] = liposomes POPC/cholesterol (66.7/33.3)

Compound | EE (%), encapsulation efficiency [1, 3] [%] | Purified D/PL (mole/mole) [1, 3] [mole/mole] | EE (%), encapsulation efficiency [1, 4] [%] | Purified D/PL (mole/mole) [1, 4] [mole/mole] | time after which release reached a plateau [2] [h]
Cc1ccc(NC(=O)c2ccc(CN3CCN(C)CC3)cc2)cc1Nc1nccc(-c2cccnc2)n1 [Imatinib, imatinib mesylate] | 91.3 | 1.24 | 66.6 | 0.90 | 
CCN(CC)CCNC(=O)c1c(C)[nH]c(/C=C2\C(=O)Nc3ccc(F)cc32)c1C [free sunitinib, sunitinib] |  |  |  |  | 6
